Assay [1] concerns IGFBP1 (insulin-like growth factor binding protein). Nature of the assay: Transcription of IGFBP1 in insulin-treated HepG2 liver cells (quantitative PCR). Type of assay: cell-based, human. Here is the method: Human hepG2 cells (ECACC) were cultivated in EMEM medium (Cambrex) with the addition of 10% fetal calf serum. 10^5 cells were seeded in 2 ml medium in 6 well plates and were cultivated at 37° C. in a moist atmosphere with 5% CO2 for 1 to 3 days, before being used for experiments.
For human HepG2 cells (ECACC), serum was removed from the medium for 24 hours, the cells were incubated for an additional 12 hours with concentrations of 1.5625 μM, 3.125 μM, 6.25 μM, 12.5 μM, 25 μM or 50 μM of the compound according to formula (9) and with 10 nM insulin. Control cells received DMSO in a concentration corresponding to that of the treated cells.
Total RNA was isolated using the Absolutely RNA Kit (Stratagene), and the cDNA was produced by means of the reverse transcription of 2 μg RNA using the High Capacity cDNA Archive Kit (Applied Biosystems), according to the manufacturer's instructions. Quantitative PCR was performed in 10 μl batches in an iQ5 Cycler (BioRad) by means of the TaqMan Gene Expression Assay (Applied Biosystems) using gene-specific primer (Applied Biosystems), according to the manufacturer's instructions. The data were normalized to the β2-microglobulin expression.

Assay [2] has as its system Drosophila melanogaster flies. Put plainly: Lifespan of adult Drosophila melanogaster flies fed with compound (Kaplan-Meier analysis). The following applies: for Average Lifespan: ±margin of error. Type of assay: in vivo. The method, then:
The experiments were conducted on isogenic flies (Drosophila melanogaster) of the genotype white^1118, also called white^− or w^−, and mutants (w^1118; step^k08110/step^SH0323) (strain # 10770 from the public Bloomington Stock Center, genotype: step^k08110/CyO, URL http://flybase.bio.indiana.edu/reports/FBstOO10770.html; strain # FBst0103734 from the public Szeged Stock Center, genotype: step^SH0323/CyO, URL http://flybase.bio.indiana.edu/reports/FBst0103734.html), in which the Drosophila cytohesin steppke is mutated and therefore defective.
By crossing the two steppke alleles k08110 and SH0323 eight times with whites flies, an isogenic genetic background is produced, which permits a comparison of the lifespans between the genotypes of the type white^1118 and the mutants (w^1118; step^k08110/step^SH0323). The average lifespan of the wild type was approximately 25 days, while that of the mutants (w^1118; step^k08110/step^SH0323) was approximately 30 days.
To produce the special food, 32.5 g autolysed yeast (Fluka (Catalog No. 73145)) and 10 g agar (Difco (Catalog No. 281230)) were mixed with 300 ml water (demineralized, Roth (Catalog No. 3175)) and autoclaved at 120° C. for 20 minutes. The solution was cooled to 60° C., and 32.5 g α-D(+)-glucose monohydrate (Roth (Catalog No. 6887)) were added under stirring. 15 ml 10% (w/v) p-hydroxybenzoic acid methylester (Sigma (Catalog No. H3647)) solution dissolved in 70% (v/v) ethanol (Roth (Catalog No. 9065)) and 1.35 ml dimethylsulfoxide (DMSO, Roth (Catalog No. A994)) were then added. Water was then added to this basic solution to a volume of 450 ml, which was then held at a temperature of 60° C. For the control food, 50 ml of a 0.7% (v/v) DMSO solution in water were produced. For the food containing the compounds according to formulas (9) or (25), 0.2 ml of a 25 mM solution of the compounds according to formula (9) or (25) in 100% DMSO were added to 49.8 ml of a 0.3012% DMSO solution in water.
These 50 ml of the control solutions and the solutions containing the compounds according to formula (9) or (25) were each mixed with 450 ml of the basic solution, and were placed in 4 ml amounts in polystyrene containers (height 9.5 cm, diameter 2.4 cm, sealed with cotton wadding) to maintain the flies. After 24 hours, the cooled containers were sealed with cotton wadding and stored at 4° C.
The final concentration of the food components in the control food was 6.5% (w/v) autolysed yeast, 6.5% (w/v) α-D(+)-glucose monohydrate, 2% (w/v) agar, 0.3% (w/v) p-hydroxybenzoic acid methylester, 2.1% ethanol (v/v), 0.34% (v/v) DMSO.
The final concentration of the food components in the food containing the compound according to formula (9) was 6.5% (w/v) autolysed yeast, 6.5% (w/v) α-D(+)-glucose monohydrate, 2% (w/v) agar, 0.3% (w/v) p-hydroxybenzoic acid methylester, 2.1% ethanol (v/v), 0.34% (v/v) DMSO, 10 μM compound according to formula (9).
The final concentration of the food components in the food containing the compound according to formula (25) was 6.5% (w/v) autolysed yeast, 6.5% (w/v) α-D(+)-glucose monohydrate, 2% (w/v) agar, 0.3% (w/v) p-hydroxybenzoic acid methylester, 2.1% ethanol (v/v), 0.34% (v/v) DMSO, 10 μM compound according to formula (25).
The larvae were maintained on standard fly food containing 1.1% (w/v) brewer's yeast (“Gewürzmühle Brecht” company), 5.43% (w/v) cornmeal, 0.53% (w/v) filamentous agar (“Gewürzmühle Brecht” company), 6.6% (v/v) sugar beet syrup (Grafschafter), 1.3% (v/v) ethanol (Roth company), 0.13% (w/v) p-hydroxybenzoic acid methylester (Sigma).
24 hours after emergence of the imagines, the adult flies, females and males were separated under a brief CO2 anesthetization lasting less than 2 minutes. During the 24 hours after emergence, the animals were fed using standard fly food. […]

Take `COc1nc(-c2ccc3c(c2)OCO3)n(-c2ccc(NC(=O)CSc3ccccc3)cc2)n1` [Compound (9)]: the “IGFBP1 expression relative to untreated cells” value in assay [1] (12.5 μM compound, 10 nM insulin) was “nearly the value of the untreated cells”. For the same molecule, the “block of the insulin-dependent inhibition of the transcription of IGFBP1” value in assay [1] (12 hours with compound and 10 nM insulin) is “nearly completely block”. Further, the “increase in average lifespan as compared with the untreated control animals” value in assay [2] (control animals (w^1118), 10 μM compound in food, P<0.05) stood at 11.5%. Also, the “Average Lifespan” value in assay [2] (genotype w^1118, female flies, 10 μM compound in food) is 28.1 (±1.0) Days; in assay [2] (genotype w^1118, step^k08110/step^SH0323 mutants, female flies, 10 μM compound in food), 34.6 (±0.8) Days. Besides, the “longer lifespan of treated mutants than untreated control animals” value in assay [2] (steppke mutants fed 10 μM compound versus untreated w^1118) stood at 37.3%. For the same molecule, the “increase in the average lifespan of mutants by feeding” value in assay [2] (steppke mutants, 10 μM compound in food, versus untreated mutants, P<0.001) is on record as 15.3%.

Values taken from patent US20100048594A1, “USE OF CYTOHESIN INHIBITORS FOR CHEMICALLY INDUCING LONGEVITY” (RHEINISCHE FRIEDRICH-WILHELMS UNIVERSITAT, priority 2006, published 2010).
